Values of other authors, collected in patent publication US20220039380A1, “PEST CONTROL INCLUDING COMBINED MATING DISRUPTION AND TRAPPING” (Trécé Inc., priority 2019, published 2022).
Like-named read-outs stand apart in the source and are kept apart here.

Columns and labels:
[1] = tested on: Oriental Fruit Moth (OFM) Grapholita molesta; conditions: for % increase in Male capture above pheromone alone: pheromone synergists, field demonstrated
[2] = tested on: Corn Earworm (CEW) Helocoverpa zea; conditions: for % increase in Male capture above pheromone alone: pheromone synergists, field demonstrated
[3] = tested on: Peach Twig Borer (PTB) Anarsia lineatella; conditions: pheromone synergists, field demonstrated
[4] = tested on: Codling Moth (CM) Cydia pomonella; conditions: kairomone attractants without pheromone, field demonstrated, Male Lures
[5] = tested on: Codling Moth (CM) Cydia pomonella; conditions: pheromone synergists, suggested (lab flight tunnel demonstrated)
[6] = tested on: Cabbage Looper (CL) Tricoplusia ni; conditions: pheromone synergists, field demonstrated
[7] = tested on: Codling Moth (CM) Cydia pomonella; conditions: pheromone synergists, proven (field demonstrated)
[8] = tested on: Beet Armyworm (BAW) Spodoptera exigua; conditions: Field & Flight Tunnel
[9] = tested on: Beet Armyworm (BAW) Spodoptera exigua; conditions: pheromone synergists, field demonstrated
[10] = tested on: Omnivorous Leafroller (OLR) Platynota stultana; conditions: pheromone synergists, field demonstrated
[11] = tested on: Tobacco Budworm (TBW) Heliothis virescens; conditions: pheromone synergists, field demonstrated
[12] = tested on: Codling Moth (CM) Cydia pomonella; conditions: for HPVs Reduce/Inhibit Pear Ester Attraction: Females Attraction: codling moth females
[13] = codling moth, added to Ethyl (2,4)(E,Z) decadienoate

Compound: C=C/C=C(\C)CCC=C(C)C
- % increase in Male capture above pheromone alone [1]: dimethyl nonatriene (427%)
- % increase in Male capture above pheromone alone [2]: dimethyl nonatriene (357%)
- % increase in Male capture above pheromone alone [3]: dimethyl nonatriene (134%)
- Male lure attraction (in words) [4]: dimethyl nonatriene (less females)

Compound: C=CC(C)(O)CCC=C(C)C (racemic) [(±) linalool]
- Pheromone synergism [5]: (±) linalool (162%)

Compound: CCC(C)C=NO (centres unmarked) [2-methyl butanal oxime]
- % increase in Male capture above pheromone alone [6]: 2-methyl butanal oxime (196%)
- % increase in Male capture above pheromone alone [2]: 2-methyl butanal oxime (196%)

Compound: OCCc1ccccc1 [2-phenylethanol]
- % increase in Male capture above pheromone alone [6]: 2-phenylethanol (131%)

Compound: CC(C)CCO [3-methyl butanol]
- % increase in Male capture above pheromone alone [7]: 3-methyl butanol (184%)

Compound: CCC/C=C/C=O [(E)-2-hexenal]
- % increase in Male capture above pheromone alone [8]: (E)-2-hexenal (139%)
- % increase in Male capture above pheromone alone [2]: (E)-2-hexenal (176%)
- % increase in Male capture above pheromone alone [9]: (E)-2-hexenal (123%)

Compound: CCC/C=C/CO [(E)-2-hexenol]
- % increase in Male capture above pheromone alone [6]: (E)-2-hexenol (112%)
- % increase in Male capture above pheromone alone [3]: (E)-2-hexenol (131%)
- Pheromone synergism [10]: (E)-2-hexenol (204%)

Compound: CCC/C=C/COC(C)=O [(E)-2-hexenyl acetate]
- % increase in Male capture above pheromone alone [1]: (E)-2-hexenyl acetate (210%)
- % increase in Male capture above pheromone alone [11]: (E)-2-hexenyl acetate (183%)
- % increase in Male capture above pheromone alone [2]: (E)-2-hexenyl acetate (190%)

Compound: C=C1CC/C=C(\C)CC[C@@H]2[C@@H]1CC2(C)C [(E)-beta-caryophyllene]
- % increase in Male capture above pheromone alone [1]: (E)-beta-caryophyllene (147%)
- % increase in Male capture above pheromone alone [2]: (E)-beta-caryophyllene (344%)

Compound: C=C/C(C)=C/CC=C(C)C [(E)-beta-ocimene]
- % increase in Male capture above pheromone alone [7]: (E)-beta-ocimene (170%)
- % increase in Male capture above pheromone alone [2]: (E)-beta-ocimene (141%)

Compound: C=CC(C)(O)CC/C=C(\C)CCC=C(C)C (centres unmarked) [(E)-nerolidol]
- % increase in Male capture above pheromone alone [2]: (E)-nerolidol (193%)

Compound: C=C/C(C)=C/C/C=C(\C)CCC=C(C)C [(E,E)-alpha-farnesene]
- % increase in Male capture above pheromone alone [3]: (E,E)-alpha-farnesene (144%)
- HPVs Reduce/Inhibit Pear Ester Attraction [12, 13]: (E,E)-alpha-farnesene (−68%)

Compound: CC1=CC[C@@H]2C[C@H]1C2(C)C [(R)-(+)-alpha-pinene]
- % increase in Male capture above pheromone alone [2]: (R)-(+)-alpha-pinene (348%)

Compound: CC1=CC[C@H]2C[C@@H]1C2(C)C [(S)-(−)-alpha-pinene]
- % increase in Male capture above pheromone alone [2]: (S)-(−)-alpha-pinene (215%)

Compound: CC/C=C\CCO [(Z)-3-hexenol]
- % increase in Male capture above pheromone alone [6]: (Z)-3-hexenol (152%)
- % increase in Male capture above pheromone alone [8]: (Z)-3-hexenol (121%)
- % increase in Male capture above pheromone alone [2]: (Z)-3-hexenol (128%)
- % increase in Male capture above pheromone alone [3]: (Z)-3-hexenol (117%)
- Pheromone synergism [10]: (Z)-3-hexenol (193%)

Compound: CC/C=C\CCOC(C)=O [(Z)-3-hexenyl acetate]
- % increase in Male capture above pheromone alone [1]: (Z)-3-hexenyl acetate (258%)
- % increase in Male capture above pheromone alone [11]: (Z)-3-hexenyl acetate (217%)
- % increase in Male capture above pheromone alone [8]: (Z)-3-hexenyl acetate (125%)
- % increase in Male capture above pheromone alone [3]: (Z)-3-hexenyl acetate (143%)
- HPVs Enhance Pear Ester Attraction (in words) [12, 13]: (Z)-3-hexenyl acetate (additive)
- Pheromone synergism [5]: (Z)-3-hexenyl acetate (151%)

Compound: C=C/C(C)=C/C/C=C(/C)CCC=C(C)C [(Z,E)-alpha-farnesene]
- HPVs Reduce/Inhibit Pear Ester Attraction: Females Attraction [12]: (Z,E)-alpha-farnesene (−87%)

Compound: CC(C)=CCC[C@]1(C)[C@H]2CC=C(C)[C@@H]1C2 [alpha-(E)-bergamotene]
- % increase in Male capture above pheromone alone [2]: alpha-(E)-bergamotene (285%)

Compound: CC1=CC[C@H](C(C)C)C=C1 [alpha-phellandrene]
- % increase in Male capture above pheromone alone [2]: alpha-phellandrene (152%)

Compound: O=Cc1ccccc1 [benzaldehyde]
- Pheromone Antagonists [1]: benzaldehyde (68%)

Compound: C=C1C=CC(C(C)C)CC1 (stereo not drawn) [beta-phellandrene]
- % increase in Male capture above pheromone alone [2]: beta-phellandrene (342%)

Compound: CCCCCC(=O)OCCCC [butyl hexanoate]
- HPVs Reduce/Inhibit Pear Ester Attraction [12, 13]: butyl hexanoate (−45%)

Compound: CC(C)=CCCC(C)=CCCC(C)=CCO [farnesol]
- HPVs Reduce/Inhibit Pear Ester Attraction [12, 13]: farnesol (−56%)

Compound: CC1=CCC(C(C)C)=CC1 [gamma-terpinene]
- % increase in Male capture above pheromone alone [7]: gamma-terpinene (131%)

Compound: CCCCCC(C)O (centres unmarked) [heptan-2-ol]
- % increase in Male capture above pheromone alone [2]: heptan-2-ol (283%)

Compound: CCCCCC=O [hexanal]
- % increase in Male capture above pheromone alone [2]: hexanal (237%)
- % increase in Male capture above pheromone alone [9]: hexanal (107%)

Compound: CCCCCCO [hexanol]
- % increase in Male capture above pheromone alone [6]: hexanol (132%)

Compound: CCCCCCOC(C)=O [hexyl acetate]
- % increase in Male capture above pheromone alone [1]: hexyl acetate (159%)
- % increase in Male capture above pheromone alone [2]: hexyl acetate (176%)

Compound: C/C1=C\CC/C(C)=C/CC(C)(C)/C=C/C1 [humulene]
- % increase in Male capture above pheromone alone [2]: humulene (220%)

Compound: C=C(C)[C@H]1CC=C(C)CC1 [limonene]
- % increase in Male capture above pheromone alone [2]: limonene (150%)
- % increase in Male capture above pheromone alone [3]: limonene (132%)

Compound: CC/C=C\CC1C(=O)CCC1CC(=O)OC (centres unmarked) [methyl jasmonate]
- % increase in Male capture above pheromone alone [2]: methyl jasmonate (255%)

Compound: CCCCCCCC(=O)OC [methyl octanoate]
- % increase in Male capture above pheromone alone [3]: methyl octanoate (172%)

Compound: COC(=O)c1ccccc1O [methyl salicylate]
- % increase in Male capture above pheromone alone [2]: methyl salicylate (172%)

Compound: C=CC(=C)CCC=C(C)C [myrcene]
- % increase in Male capture above pheromone alone [7]: myrcene (190%)

Compound: CCCCCCCCC=O [nonanal]
- % increase in Male capture above pheromone alone [2]: nonanal (219%)
- HPVs Reduce/Inhibit Pear Ester Attraction: Females Attraction [12]: nonanal (−95%)

Compound: Cc1ccc(C(C)C)cc1 [para-cymene]
- % increase in Male capture above pheromone alone [7]: para-cymene (187%)

Compound: O=CCc1ccccc1 [phenyl acetaldehyde]
- % increase in Male capture above pheromone alone [6]: phenyl acetaldehyde (188%)
- % increase in Male capture above pheromone alone [8]: phenylacetaldehyde (135%)
- Blossom Volatiles, Gaura Volatiles, repeated below the heading Pheromone Antagonists [2]: phenyl acetaldehyde (216%)
- % increase in Male capture above pheromone alone [2]: phenyl acetaldehyde (216%)

Compound: CC1=CCC(O)(C(C)C)CC1 (centres unmarked) [terpinen-4-ol]
- % increase in Male capture above pheromone alone [7]: terpinen-4-ol (206%)

Compound: butanol
- % increase in Male capture above pheromone alone [7]: butanol (202%)
